# According to US8192962B2, “Processes for detecting toxic substances” (Daikin Industries, Ltd., priority 2001, dated 2012):
# Tested on: Detoxification protein genes
# Experiment: DNA chip mRNA expression in yeast, detoxification protein genes (Table 8)
# Type: cell-based, Saccharomyces cerevisiae S288C
# Procedure, shortened: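 In this screen, yeast in logarithmic growth are challenged for two hours with a toxic substance at a non-lethal inhibitory concentration. Their mRNA, converted to Cy3- or Cy5-labeled cDNA, hybridizes at 65° C. to a chip spanning every yeast gene, and expression is expressed as a ratio to untreated cells.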
compound,measurement,setting,value
"CN(C)C(=S)SSC(=S)N(C)C [(10), Tetramethylthiuram disulfide]",The level of expressed mRNA in the presence of chemical substance/The level of expressed mRNA in the absence of chemical substance,yeast gene YBL064C,3.8
same,The level of expressed mRNA in the presence of chemical substance/The level of expressed mRNA in the absence of chemical substance,yeast gene YBR008C,21.1
same,The level of expressed mRNA in the presence of chemical substance/The level of expressed mRNA in the absence of chemical substance,yeast gene YBR145W,1.1
same,The level of expressed mRNA in the presence of chemical substance/The level of expressed mRNA in the absence of chemical substance,yeast gene YBR244W,3.0
same,The level of expressed mRNA in the presence of chemical substance/The level of expressed mRNA in the absence of chemical substance,yeast gene YBR293W,2.4
same,The level of expressed mRNA in the presence of chemical substance/The level of expressed mRNA in the absence of chemical substance,yeast gene YCL035C,2.3
same,The level of expressed mRNA in the presence of chemical substance/The level of expressed mRNA in the absence of chemical substance,yeast gene YCL069W,6.9
same,The level of expressed mRNA in the presence of chemical substance/The level of expressed mRNA in the absence of chemical substance,yeast gene YCR083W,1.8
same,The level of expressed mRNA in the presence of chemical substance/The level of expressed mRNA in the absence of chemical substance,yeast gene YDL100C,3.2
same,The level of expressed mRNA in the presence of chemical substance/The level of expressed mRNA in the absence of chemical substance,yeast gene YDL168W,4.7
same,The level of expressed mRNA in the presence of chemical substance/The level of expressed mRNA in the absence of chemical substance,yeast gene YDR256C,2.0
same,The level of expressed mRNA in the presence of chemical substance/The level of expressed mRNA in the absence of chemical substance,yeast gene YDR453C,6.1
same,The level of expressed mRNA in the presence of chemical substance/The level of expressed mRNA in the absence of chemical substance,yeast gene YDR513W,3.1
same,The level of expressed mRNA in the presence of chemical substance/The level of expressed mRNA in the absence of chemical substance,yeast gene YDR538W,0.8
same,The level of expressed mRNA in the presence of chemical substance/The level of expressed mRNA in the absence of chemical substance,yeast gene YEL027W,1.1
same,The level of expressed mRNA in the presence of chemical substance/The level of expressed mRNA in the absence of chemical substance,yeast gene YEL065W,4.9
same,The level of expressed mRNA in the presence of chemical substance/The level of expressed mRNA in the absence of chemical substance,yeast gene YER185W,1.2
same,The level of expressed mRNA in the presence of chemical substance/The level of expressed mRNA in the absence of chemical substance,yeast gene YFL050C,1.6
same,The level of expressed mRNA in the presence of chemical substance/The level of expressed mRNA in the absence of chemical substance,yeast gene YGL013C,1.5
same,The level of expressed mRNA in the presence of chemical substance/The level of expressed mRNA in the absence of chemical substance,yeast gene YGL254W,1.8
same,The level of expressed mRNA in the presence of chemical substance/The level of expressed mRNA in the absence of chemical substance,yeast gene YGR088W,3.2
same,The level of expressed mRNA in the presence of chemical substance/The level of expressed mRNA in the absence of chemical substance,yeast gene YGR138C,1.0
same,The level of expressed mRNA in the presence of chemical substance/The level of expressed mRNA in the absence of chemical substance,yeast gene YGR197C,3.2
same,The level of expressed mRNA in the presence of chemical substance/The level of expressed mRNA in the absence of chemical substance,yeast gene YGR209C,6.3
same,The level of expressed mRNA in the presence of chemical substance/The level of expressed mRNA in the absence of chemical substance,yeast gene YGR224W,0.9
same,The level of expressed mRNA in the presence of chemical substance/The level of expressed mRNA in the absence of chemical substance,yeast gene YHL040C,11.3
same,The level of expressed mRNA in the presence of chemical substance/The level of expressed mRNA in the absence of chemical substance,yeast gene YHL047C,11.9
same,The level of expressed mRNA in the presence of chemical substance/The level of expressed mRNA in the absence of chemical substance,yeast gene YHR008C,2.4
same,The level of expressed mRNA in the presence of chemical substance/The level of expressed mRNA in the absence of chemical substance,yeast gene YHR048W,2.7
same,The level of expressed mRNA in the presence of chemical substance/The level of expressed mRNA in the absence of chemical substance,yeast gene YHR053C,2.9
same,The level of expressed mRNA in the presence of chemical substance/The level of expressed mRNA in the absence of chemical substance,yeast gene YHR055C,3.3
same,The level of expressed mRNA in the presence of chemical substance/The level of expressed mRNA in the absence of chemical substance,yeast gene YIR002C,1.4
same,The level of expressed mRNA in the presence of chemical substance/The level of expressed mRNA in the absence of chemical substance,yeast gene YIR038C,4.5
same,The level of expressed mRNA in the presence of chemical substance/The level of expressed mRNA in the absence of chemical substance,yeast gene YJL101C,3.6
same,The level of expressed mRNA in the presence of chemical substance/The level of expressed mRNA in the absence of chemical substance,yeast gene YJR104C,2.8
same,The level of expressed mRNA in the presence of chemical substance/The level of expressed mRNA in the absence of chemical substance,yeast gene YKL026C,3.0
same,The level of expressed mRNA in the presence of chemical substance/The level of expressed mRNA in the absence of chemical substance,yeast gene YKL064W,1.6
same,The level of expressed mRNA in the presence of chemical substance/The level of expressed mRNA in the absence of chemical substance,yeast gene YKR066C,2.4
same,The level of expressed mRNA in the presence of chemical substance/The level of expressed mRNA in the absence of chemical substance,yeast gene YKR105C,5.2
same,The level of expressed mRNA in the presence of chemical substance/The level of expressed mRNA in the absence of chemical substance,yeast gene YKR106W,7.4
same,The level of expressed mRNA in the presence of chemical substance/The level of expressed mRNA in the absence of chemical substance,yeast gene YLL028W,2.3
same,The level of expressed mRNA in the presence of chemical substance/The level of expressed mRNA in the absence of chemical substance,yeast gene YLL057C,2.9
same,The level of expressed mRNA in the presence of chemical substance/The level of expressed mRNA in the absence of chemical substance,yeast gene YLL060C,23.2
same,The level of expressed mRNA in the presence of chemical substance/The level of expressed mRNA in the absence of chemical substance,yeast gene YLR043C,2.5
same,The level of expressed mRNA in the presence of chemical substance/The level of expressed mRNA in the absence of chemical substance,yeast gene YLR046C,1.4
same,The level of expressed mRNA in the presence of chemical substance/The level of expressed mRNA in the absence of chemical substance,yeast gene YML028W,1.8
same,The level of expressed mRNA in the presence of chemical substance/The level of expressed mRNA in the absence of chemical substance,yeast gene YML116W,3.1
same,The level of expressed mRNA in the presence of chemical substance/The level of expressed mRNA in the absence of chemical substance,yeast gene YMR015C,0.3
same,The level of expressed mRNA in the presence of chemical substance/The level of expressed mRNA in the absence of chemical substance,yeast gene YMR038C,2.6
same,The level of expressed mRNA in the presence of chemical substance/The level of expressed mRNA in the absence of chemical substance,yeast gene YNL239W,6.0
same,The level of expressed mRNA in the presence of chemical substance/The level of expressed mRNA in the absence of chemical substance,yeast gene YNL241C,7.4
same,The level of expressed mRNA in the presence of chemical substance/The level of expressed mRNA in the absence of chemical substance,yeast gene YNL259C,2.1
same,The level of expressed mRNA in the presence of chemical substance/The level of expressed mRNA in the absence of chemical substance,yeast gene YOL158C,6.1
same,The level of expressed mRNA in the presence of chemical substance/The level of expressed mRNA in the absence of chemical substance,yeast gene YOR031W,1.3
same,The level of expressed mRNA in the presence of chemical substance/The level of expressed mRNA in the absence of chemical substance,yeast gene YOR153W,1.2
same,The level of expressed mRNA in the presence of chemical substance/The level of expressed mRNA in the absence of chemical substance,yeast gene YOR247W,0.4
